According to patent US12042478B2, “(R)-2-[(2H-1,3-benzodioxol-5-yl)methyl]pyrrolidine and processes for preparation, compositions and uses thereof” (Pharmala Biotech Inc., priority 2022, dated 2024):
Entries after “also recorded” stand apart in the source; their conditions may differ.

System: C57 and BTBR mice
Experiment: Conditioned place preference
Format: in vivo, mouse
Conditions: 1.0 mg/kg, x3 pairings, C57 mice
Method: The same 2-compartment chambers as described above in the social preference studies for conditioned place preference. For these studies, compartments are differentiated by floor texture (rough black plastic vs steel punch plate) and wall pattern (vertical vs. horizontal stripes.) An initial preference/habituation test was first run where mice were able to freely traverse the apparatus for 30 minutes. The following day, mice were assigned to receive saline in one compartment and drug in the other. Saline pairings occurred in the morning, drug pairings occurred in the afternoon, and were separated by at least 4 hours, during which time mice returned to their home cages. Three such pairings were performed, where mice were injected, returned to the home cage for a 15 min pretreatment period, then confined to the injection-appropriate compartment for 30 minutes. Half the subjects (within strain) received drug pairings on the plastic floor+vertical stripes side, and the other half received drug pairings on the punch plate floor+horizontal stripes side. […] The post-conditioning preference test was identical to the initial preference/habituation session, where mice were freely able to traverse the apparatus for 30 minutes. Time spent in each compartment was recorded, and expressed as a preference score for the drug paired side (calculated as time spent in that compartment during the post-test—time spent there during the pre-test.) All preference and conditioning sessions were conducted under the same low light conditions as in the social preference tests.

## c1cc2c(cc1C[C@H]1CCCN1)OCO2 [(R)-I, (R)-2-[(2H-1,3-benzodioxol-5-yl)methyl]pyrrolidine]
  place conditioning (place preference): neither 1.0 mg/kg (R)-I nor 1.0 mg/kg (S)-I elicited significant place preferences; also recorded: negligible effects

## c1cc2c(cc1C[C@@H]1CCCN1)OCO2 [(S)-I, (S)-2-[(2H-1,3-benzodioxol-5-yl)methyl]pyrrolidine]
  place conditioning (place preference): neither 1.0 mg/kg (R)-I nor 1.0 mg/kg (S)-I elicited significant place preferences; also recorded: negligible effects
